Values joined by “and” are separate entries in the source; they are usually repeats but may differ in a detail not shown here. Equal entries are not always repeated.
Assays:
[1] = tested on: desmosine (DES) and isodesmosine (IDES); assay: Phase 1b study: plasma desmosine and isodesmosine by isotope-dilution LC/MS; type: in vivo, human
Procedure: (§1) Patients age ≥18 years with BOS and chronic GVHD after HCT were recruited to the National Cancer Institute protocol (NCT02669251). This phase 1 study had 2 parts: 8-week intra-patient dose escalation period, followed by a continuation period that allowed for up to 6 months of treatment. Alvelestat was given orally starting at 60 mg twice daily, increased every 2 weeks to 120 mg twice daily, 180 mg twice daily, and finally 240 mg twice daily.
(§2) Blood biomarkers for neutrophil elastase activity, desmosine, isodesmosine, PRO-C3 and PRO-C6, were collected at baseline (pre-treatment with alvelestat) and after every 2 weeks during alvelestat dose escalations i.e. after 60 mg bid, 120 mg bid, 180 mg bid and 240 mg bid.
DES and IDES levels in the plasma were measured by an isotope-dilution, liquid-chromatography/mass spectrometry method (Huang et al Thorax 2012; 67:502-508).[12] [13]
Results are presented as Mean and Standard Error Mean (SEM). Samples were taken at baseline and at the end of each dose-escalation stage.

[2] = tested on: PRO-C3; assay: Phase 1b study: collagen type 3 synthesis biomarker PRO-C3 (and PRO-C3:C3M ratio) by competitive ELISA; type: in vivo, human
Procedure: as §1, §2
(§3) Biomarkers of novel epitopes (neoepitopes) related to collagen turnover and fibrosis (PRO-C6, PRO-C3, C3M, and C6M) were measured by competitive Enzyme Linked Immunosorbant Assay (ELISA) (Nordic Biosciences, Denmark).[1]

[3] = tested on: PRO-C6; assay: Phase 1b study: collagen type 6 synthesis biomarker PRO-C6 by competitive ELISA; type: in vivo, human; conditions: above ULN at baseline; during alvelestat treatment; FIG. 3B
Procedure: as §1, §2, §3

[4] = Phase 1b study in patients with BOS after HCT: tolerability and clinical outcome; type: in vivo
Procedure: as §1

[5] = tested on: C1M (collagen Type 1); assay: 12-week study NCT03636347: collagen degradation biomarker C1M; type: in vivo, human; conditions: alvelestat at week 12, three treatment arms pooled, N = 32; alpha-1 anti-trypsin deficient lung disease; ANCOVA
Procedure: (§4) An aspect of NCT03636347 was to investigate the effect of alvelestat on collagen biomarkers in patients with PiZZ, null or rare variant phenotype/genotype alpha-1 anti-trypsin deficient lung disease. % Change from baseline in a number collagen degradation biomarkers were measured over a 12 week period in alvelestat and placebo arms. Inclusion criteria: patients (18 Years to 75 Years) with a confirmed diagnosis of alpha-1-anti-trypsin deficiency and a PiZZ, null or other rare geno/phenotype and serum […] levels of less than 11 uM; FEV1≥20% predicted; Computerised tomography (CT) scan evidence of emphysema; and non-smokers. Alvelestat was given orally at 120 mg twice daily, 240 mg twice daily, or dose escalation up to 240 mg twice daily, so there were three alvelestat treatment arms. Collagen degradation biomarkers […] (collagen Type 1), […] (collagen Type 6), […] (collagen Type 4) C3M (collagen Type 3) were collected at baseline (e.g. before treatment with alvelestat or placebo) and after 12 weeks following treatment with alvelestat or placebo. Biomarkers related to C3M and […] were measured by competitive Enzyme Linked Immunosorbant Assay (ELISA) (Nordic Biosciences, Denmark).[1] Biomarkers related to […] and […] were measured with Nordic Bioscience assays [Chest. […] C1M, […] concentrations were measured in ng/mL. […]

[6] = tested on: C6M (collagen Type 6); assay: 12-week study NCT03636347: collagen degradation biomarker C6M; type: in vivo, human; conditions: alvelestat at week 12, three treatment arms pooled, N = 36; ANCOVA
Procedure: as §4

[7] = tested on: C4Ma3 (collagen Type 4); assay: 12-week study NCT03636347: collagen degradation biomarker C4Ma3; type: in vivo, human; conditions: alvelestat at week 12, three treatment arms pooled, N = 17; ANCOVA
Procedure: as §4

[8] = tested on: C3M (collagen Type 3); assay: 12-week study NCT03636347: collagen degradation biomarker C3M; type: in vivo, human; conditions: alvelestat at week 12, three treatment arms pooled, N = 34; ANCOVA
Procedure: as §4

[9] = biological target: T1, Neutrophil Elastase (NE) (Homo sapiens, UniProt P08246); conditions: from WO2021/053058, Examples 1-5; cited from earlier work
T1 sequence (P08246 30-267): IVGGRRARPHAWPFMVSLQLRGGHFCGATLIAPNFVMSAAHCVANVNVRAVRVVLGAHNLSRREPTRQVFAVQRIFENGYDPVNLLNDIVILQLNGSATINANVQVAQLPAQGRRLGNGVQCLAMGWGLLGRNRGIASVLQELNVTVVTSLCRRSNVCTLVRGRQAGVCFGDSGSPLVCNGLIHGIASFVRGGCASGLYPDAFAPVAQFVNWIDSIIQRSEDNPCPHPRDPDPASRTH

[10] = from WO2021/053058, Examples 1-5; cited from earlier work
[11] = biological target: T1, Neutrophil Elastase (NE); assay: Phase 1b study: ex-vivo zymosan-stimulated neutrophil elastase activity in whole blood; set-up: induce degranulation of white blood cells including neutrophils, releasing an excess of free active NE into the plasma; from tissue; host or cells: whole blood of patients (neutrophils degranulated with zymosan); plasma measured with ProteaseTag Active Neutrophil Elastase Immunoassay (ProAxsis Ltd); conditions: FIG. 2
Procedure: Patients age ≥18 years with BOS and chronic GVHD after HCT were recruited to the National Cancer Institute protocol (NCT02669251). […] Alvelestat was given orally starting at 60 mg twice daily, increased every 2 weeks to 120 mg twice daily, 180 mg twice daily, and finally 240 mg twice daily.
as §2
Ex-vivo zymosan-stimulated Neutrophil Elastase (NE) activity was measured by the following assay: zymosan was added to whole blood to induce degranulation of white blood cells including neutrophils, releasing an excess of free active NE into the plasma. The blood was centrifuged and plasma removed. The level of NE in the plasma sample was measured by the ProteaseTag® Active Neutrophil Elastase Immunoassay (ProAxsis Ltd, Belfast, Northern Ireland).

Cc1c(-c2ccnn2C)cc(C(=O)NCc2ccc(S(C)(=O)=O)cn2)c(=O)n1-c1cccc(C(F)(F)F)c1 [alvelestat, N-{[5-(methanesulfonyl)pyridin-2-yl]methyl}-6-methyl-5-(1-methyl-1H-pyrazol-5-yl)-2-oxo-1-[3-(trifluoromethyl)phenyl]-1,2-dihydropyridine-3-carboxamide]
DES and IDES plasma level, mean (SEM) ([1]; patients with BOS after HCT, N=7, week 8 of dose escalation 60 to 240 mg twice daily oral, baseline 0.464): 0.380 (SEM 0.0419) ng/ml | DES and IDES mean within subject % change from baseline (CFB) ([1]; week 8 of dose escalation, SEM 6.794, FIG. 1): −16.2% | Collagen synthesis as measured by PRO-C3 ([2]; above ULN at baseline, during alvelestat treatment, FIG. 3A): declined | Ratio of PRO-C3 to C3M ([2]; blood samples during the study, n=7, FIG. 4): decrease | Collagen synthesis as measured by PRO-C6 [3]: declined | Tolerability of dose escalation ([4]; all 7 patients, up to maximum dose 240 mg twice daily): able to tolerate dose escalation | Lung disease outcome (FEV1% predicted at end of treatment no worse than 10% below baseline level) ([4]; the 6 patients with biomarker suppression): improved or stable lung disease | Patients with consistent suppressive effect on biomarkers of elastase activity and collagen turnover ([4]; treated patients, phase 1b): 6 of 7 | C1M change from baseline (%), LS Means (SE) [5]: −0.6% and −0.6 (49.42) % | C6M change from baseline (%), LS Means (SE) [6]: 1.1% and 1.1 (5.52) % | C4Ma3 change from baseline (%), LS Means (SE) [7]: −6.6 (8.96) % | C3M change from baseline (%), LS Means (SE) [8]: −1.7 (4.08) % | Inhibition of neutrophil elastase (NE) [9]: potent and specific inhibitor | Effect against GVHD [10]: protective effect | Ex vivo zymosan stimulated elastase activity, course ([11]; over the dose escalation period, N=7): progressive decrease | Suppression of ex vivo zymosan stimulated elastase activity ([11]; some subjects, dose escalation period): 100%

Reference: US20240382472A1, “NEUTROPHIL ELASTASE INHIBITORS FOR USE IN THE TREATMENT OF FIBROSIS” (MEREO BIOPHARMA 4 LIMITED, priority 2021, published 2024)
